Laboratory results from article PMC3388044, “Probing of Exosites Leads to Novel Inhibitor Scaffolds of HCV NS3/4A Proteinase” (PLoS ONE, 2012).

Experiments:
Huh7 ET cells = conditions: for CC50: read-out: HCV replicon CC50, concentration reducing cell viability by 50%, 72 h; for CC90: read-out: HCV replicon CC90, concentration reducing cell viability by 90%, 72 h
Description: Both cell toxicity and HCV replicon inhibition assays were performed in triplicate in wells of a 96-well flat-bottom, white-wall plates (E&K Scientific, Santa Clara, CA) by the Drug Development Division, Southern Research Institute (SRI; Birmingham, AL). […] Prior to the assays, sub-confluent Huh7 ET cultures were seeded in wells of a 96-well plate. Following a 24 h incubation at 37°C in a 5% CO2 incubator, increasing concentrations of the compounds were added to the wells and incubation was continued for an additional 72 h. […] Human interferon α2b was used as a control. The cellular replicon-derived luciferase activity was measured using the Steady-Glo Luciferase Assay System (Promega, Fitchburg, WI) and a fluorescence spectrophotometer. Cytotoxicity of compounds was measured using the CytoTox-ONE Homogeneous Membrane Integrity Assay (Promega). The IC50 and IC90 values of the compounds (compound concentrations inhibiting the replicon by 50% and 90%, respectively) as well as CC50 and CC90 (compound concentration decreasing cell viability by 50% and 90%, respectively) were calculated using GraphPad Prism.

NS3/4A A156T [1] = molecular target: T1, NS3/4A A156T (Hepatitis C virus genotype 1b, UniProt O92972, A1182T); format: biochemical, HCV genotype 1b, strain HC-J4; conditions: for IC50: recombinant A156T mutant, FRET peptide substrate; for effect of A156T resistance mutation on efficacy: in contrast with boceprevir and telaprevir
T1 construct: The NS3/4A construct represented the individual NS3 proteinase domain N-terminally fused with an NS4A co-factor; 6xHis; purchased AnaSpec (Fremont, CA)
Text: (§1) Reagents were purchased from Sigma unless indicated otherwise. The FRET substrate Ac-DE-D(Edans)-EE-Abu-ψ-[COO]-AS-K(Dabsyl)-NH2, purified recombinant wild-type NS3/4A from HCV genotype 1b, strain HC-J4, and the mutants with the V36M, R155K, A156T, D168A and V170A resistance mutations were from AnaSpec (Fremont, CA). The NS3/4A construct represented the individual NS3 proteinase domain N-terminally fused with an NS4A co-factor and tagged with a 6xHis tag. […] Pyroglutamic acid-Arg-Thr-Lys-Arg-7-amino-4-methylcoumarin was from Peptides International (Louisville, KY). West Nile virus NS2B-NS3 proteinase (strain NY99) was expressed, purified and refolded to restore its functional activity as described earlier. The pET15b-Den2-CF40-Gly-NS3pro 185 plasmid encoding the Dengue virus type 2 NS2B-NS3 protease was a kind gift of Dr. Subhash Vasudevan (Program in Emerging Infectious Diseases, DUKE-NUS Graduate Medical School, Singapore). DV NS2B-NS3 proteinase was expressed purified and refolded to restore its functional activity as described previously, [70]. The expression of the soluble C-terminally truncated human furin construct in Sf9 insect cells (an ovarian cell line from fall armyworm Spodoptera frugiperda; Invitrogen, Carlsbad, CA) infected with the recombinant baculovirus and purification of soluble furin from the medium were described earlier. Original human hepatocarcinoma Huh7 cells were obtained from ATCC (Manassas, VA).
(§2) The NS3/4A activity assay was performed at 37°C in triplicate in wells of a 96-well plate in 0.2 ml 50 mM HEPES, pH 7.5, containing 100 mM NaCl, 10 mM DTT, 20% glycerol, the Ac-DE-D(Edans)-EE-Abu-ψ-[COO]-AS-K(Dabsyl)-NH2 substrate (10 µM) and the NS3/4A enzyme (10 nM). Reaction velocity was monitored continuously at λex = 355 nm and λem = 500 nm for 10 min using a Spectramax Gemini EM fluorescence spectrophotometer (Molecular Devices, Sunnyvale, CA) and the initial rate of reaction v was recorded for each reaction. […] Compound stock solutions (10 mM) were made in 100% DMSO. Stocks were then diluted using the assay buffer. As a result, the final DMSO concentration was always below 1% in the assay reactions.
(§3) To measure the inhibitory potency of the compounds, their increasing concentrations were pre-incubated with the individual proteinases in the corresponding buffer for 30 min at ambient temperature. At least, 7–9 different concentrations were used for each inhibitor. The residual activity of the enzymes was then measured as above. The IC50 values of the inhibitory compounds were calculated by determining the concentrations of the compounds needed to inhibit 50% of the enzyme activity against the peptide substrate. GraphPad Prism was used as fitting software.

NS3/4A A156T [2] = format: biochemical, HCV genotype 1b, strain HC-J4; conditions: fold change in IC50 for the mutant compared to WT
Text: as §1, §2, §3

NS3/4A D168A [3] = molecular target: T2, NS3/4A D168A (Hepatitis C virus genotype 1b, UniProt O92972, D1194A); format: biochemical, HCV genotype 1b, strain HC-J4; conditions: recombinant D168A mutant, FRET peptide substrate
T2 construct: The NS3/4A construct represented the individual NS3 proteinase domain N-terminally fused with an NS4A co-factor; 6xHis; purchased AnaSpec (Fremont, CA)
Text: as §1, §2, §3

NS3/4A D168A [4] = format: biochemical, HCV genotype 1b, strain HC-J4; conditions: fold change in IC50 for the mutant compared to WT
Text: as §1, §2, §3

NS3/4A R155K [5] = molecular target: T3, NS3/4A R155K (Hepatitis C virus genotype 1b, UniProt O92972, R1181K); format: biochemical, HCV genotype 1b, strain HC-J4; conditions: recombinant R155K mutant, FRET peptide substrate
T3 construct: The NS3/4A construct represented the individual NS3 proteinase domain N-terminally fused with an NS4A co-factor; 6xHis; purchased AnaSpec (Fremont, CA)
Text: as §1, §2, §3

NS3/4A R155K [6] = format: biochemical, HCV genotype 1b, strain HC-J4; conditions: fold change in IC50 for the mutant compared to WT
Text: as §1, §2, §3

NS3/4A V36M [7] = molecular target: T4, NS3/4A V36M (Hepatitis C virus genotype 1b, UniProt O92972, V1062M); format: biochemical, HCV genotype 1b, strain HC-J4; conditions: recombinant V36M mutant, FRET peptide substrate
T4 construct: The NS3/4A construct represented the individual NS3 proteinase domain N-terminally fused with an NS4A co-factor; 6xHis; purchased AnaSpec (Fremont, CA)
Text: as §1, §2, §3

NS3/4A V36M [8] = format: biochemical, HCV genotype 1b, strain HC-J4; conditions: fold change in IC50 for the mutant compared to WT
Text: as §1, §2, §3

SMILES	CC50 (Huh7 ET cells)	CC90 (Huh7 ET cells)	IC50 (NS3/4A A156T [1])	NS3/4A A156T FC (NS3/4A A156T [2])	IC50 (NS3/4A D168A [3])	NS3/4A D168A FC (NS3/4A D168A [4])	IC50 (NS3/4A R155K [5])	NS3/4A R155K FC (NS3/4A R155K [6])	IC50 (NS3/4A V36M [7])	NS3/4A V36M FC (NS3/4A V36M [8])	effect of A156T resistance mutation on efficacy (NS3/4A A156T [1])
Cc1n[nH]c(=S)n1Nc1nc(SCc2ccccc2)nc2n[nH]c(Cc3nn[nH]n3)c12 [Compound 3]	> 100 µM	> 100 µM	16.2 µM	45.14	8.4 µM	23.3	5.53 µM	15.4	1.67 µM	4.6	
O=C(Nc1ccccc1)c1cc(S(=O)(=O)Nc2nc3ncccc3[nH]2)c(SSc2cc(Cl)c(C(=O)Nc3ccccc3)cc2S(=O)(=O)Nc2nc3ncccc3[nH]2)cc1Cl [Compound 1]	> 100 µM	> 100 µM	0.72 µM	3.93	0.25 µM	1.4	1.75 µM	9.6	0.26 µM	1.4	
S=c1[nH]nc(Nc2nc(SCc3ccccc3)nc3n[nH]c(Cc4nn[nH]n4)c23)s1 [Compound 6]	> 100 µM	> 100 µM	3.08 µM	3.24	1.21 µM	1.3	2.29 µM	2.4	0.99 µM	1.04	not affected
Oc1ccccc1-c1nnc2sc3c(Cl)c4nn5c(-c6ccccc6O)nnc5sc4c(Cl)c3nn12 [Compound 4]	> 100 µM	> 100 µM	6.54 µM	18.17	3.35 µM	9.3	3.73 µM	10.4	0.34 µM	0.9	
S=c1[nH]n2c(COc3cc(Cl)c(OCc4nnc5sc(=S)[nH]n45)cc3Cl)nnc2s1 [Compound 7]	86.8 µM	96.3 µM	1.12 µM	0.9	1.28 µM	1	2.03 µM	1.6	1.4 µM	1.1	not affected
Clc1ccc(Nc2nc(SCc3ccccc3)nc3n[nH]c(Cc4nc5ccccc5s4)c23)cc1 [Compound 5]	> 100 µM	> 100 µM	18.6 µM	48.95	12.7 µM	33.4	9.64 µM	25.4	1.07 µM	2.8	
COc1cc(C2C(C(=O)Nc3ccc(Cl)c(Cl)c3)=C(C)NC(C)=C2C(=O)Nc2ccc(Cl)c(Cl)c2)ccc1O [Compound 8]	14.2 µM	26.6 µM	17.7 µM	9.2	3.02 µM	1.6	10.9 µM	5.7	1.84 µM	0.96	
Clc1ccc(OCc2nn3c(CCc4nnc5sc(COc6ccc(Cl)cc6)nn45)nnc3s2)cc1 [Compound 2]	9.99 µM	22.1 µM	17.3 µM	57.57	4.45 µM	14.8	5.84 µM	19.5	1.53 µM	5.1	
